Assay results taken from patent US20030206968A1, “Fungicidal mixtures” (priority 1999, published 2003).

Columns and labels:
Type in all cases: in vivo
[1] = test system: Blumeria graminis; test: Field test, Blumeria graminis on wheat; conditions: 17 days after application
Method: (§1) The trials are carried out under greenhouse (Examples 1 to 32) or field conditions (Examples 33 to 40) in residual or curative applications. The fungicides are applied in single treatments, or in a combination comprising an azolopyrimidine of formula I and a compound selected from the classes (A), (B) and (C) as defined above. The compounds are applied in form of an aqueous spray mix obtained from a concentrated formulation or the technical material.
For the field study formulated Azolopyrimidine A, B or C and formulated compounds from the classes (A), (B) and (C) were used.
(§2) Assessments of the diseases took place at the indicated day after the application of the compounds. Per cent infected leaf area infected was evaluated. The efficacy of the compounds/compounds mixtures to control the diseases was calculated by using the formula given above under item 4: […]
(§3) Synergy was calculated using the % disease control values of specific treatments for the two COLBY formula given hereinabove
The compounds are applied according to good agricultural practice in the form of an aqueous spray mix obtained from a concentrated formulation or the technical material at a rate of 400 l/ha. The disease control is evaluated according to the formula given for the greenhouse tests.
Fungicidal efficacy of the mixture of (S)-Azolopyrimidine C+cyproconazole in the field against Blumeria graminis on wheat 17 days after application The tank mix was obtained from a SC formulation containing 100 g (S)-Azolopyrimidine C per liter and an EC formulation containing 60 g cyproconazole per liter.
Fungicidal efficacy of the mixture of (S)-Azolopyrimidine C+azoxystrobin in the field against Blumeria graminis on wheat 17 days after application The tank mix was obtained from a SC formulation containing 100 g (S)-Azolopyrimidine C per liter and a SC formulation containing 250 g azoxystrobin per kg.
Fungicidal efficacy of the mixture of Azolopyrimidine A and different cereal fungicides in the field against Blumeria graminis on wheat 15 days after application The tank mix was obtained from an SC formulation containing 100 g Azolopyrimidine A per liter and commercially available formulations of metconazole, epoxiconazole or kresoxim methyl, respectively.

[2] = test system: Alternaria solani; test: Greenhouse, Alternaria solani on tomatoes, 1 day residual; conditions: Example 25; rate 16 g/ha
Method: as §1
(§4) 1. Seed is planted in 6 cm diameter plastic pots and maintained in the greenhouse.
(§5) 2. When the primary leaf is fully expanded in the case of cereals or several leaves are present in the case of dicots, formulated test compounds are sprayed with a three nozzle overhead fungicide sprayer to near run-off. Alternatively, a single nozzle overhead track sprayer is used for application of the compounds to cereals at a rate of 200 l/ha. Plants are then allowed to air-dry.
(§6) 3. Inoculation precedes treatment in the case of curative evaluations and follows treatment in case of residual evaluations. For inoculation of powdery mildew disease, plants are set up on greenhouse benches with bottom watering mats and inoculated by dusting them with conidia from infected plants. Between inoculation and treatment for curative evaluations and between treatment and inoculation for residual evaluations, plants are maintained in the greenhouse with bottom watering.
(§7) For inoculation of non-powdery mildew diseases, an aqueous spore suspension of the pathogen is applied to the plant and the plants are kept 1-2 days in a moist infection chamber before being returned to the greenhouse where they are maintained by bottom watering.
(§8) 4. Disease on the foliage as percent leaf area with disease symptoms/signs is evaluated about 7 days after inoculation. In the case of wheat, the tips and bases of the leaves are excluded from the evaluation. [formula]
(§9) 1. Technical compounds are formulated in a solvent/surfactant system consisting of 5% acetone and 0.05% Tween 20 in deionized water. Compounds are dissolved in acetone prior to addition of the water; the Tween 20 can be added through either the acetone or the water. Dilutions are made using the solvent/surfactant system. Formulated compounds are prepared using deionized water.
(§10) 2. Two kinds of controls are included: Plants treated with the solvent/surfactant solution and inoculated (Solvent Blank). Untreated plants which are inoculated (Inoculated Control).
as §2, §3
Fungicidal efficacy of the mixture of Azolopyrimidine C and different fungicides (1 day residual) against Alternaria solani on tomatoes The tank mix was obtained from an SC formulation containing 100 g Azolopyrimidine A per liter and WP formulations of dithianon (750 g/kg), captan (500 g/kg), cyprodinil (750 g/kg), mancozeb (800 g/kg), or a SC formulation of chlorothalonil (500 g/l), or a FS formulation of fenpiclonil (400 g/l), spectively.

[3] = test system: Leptosphaeria nodorum; test: Greenhouse, Leptosphaeria nodorum on wheat, 3 day residual; conditions: Example 1
Method: as §1, §4, §5, §6, §7, §8, §9, §10, §2, §3
Fungicidal efficacy of the mixture of Azolopyrimidine A+fenpropimorph (3 day residual) against Leptosphaeria nodorum on wheat The tank mix was obtained from technical material of Azolopyrimidine A and an EC formulation containing 750 g fenpropimorph per liter.
Fungicidal efficacy of the mixture of Azolopyrimidine A+tebuconazole (3 day residual) against Leptosphaeria nodorum on wheat The tank mix was obtained from technical material of Azolopyrimidine A and an EC formulation containing 250 g tebuconazole per liter.

[4] = test system: Erysiphe cichoracearum; test: Greenhouse, Erysiphe cichoracearum on cucumbers, 1 day residual; conditions: Example 23
Method: as §1, §4, §5, §6, §8, §9, §10, §2, §3
Fungicidal efficacy of the mixture of Azolopyrimidine C+triforine (1 day residual) against Erysiphe cichoracearum on cucumbers
the tank mix was obtained from a SC formulation containing 100 g of Azolopyrimidine C per liter and an DC formulation containing and 190 g of triforine per liter.
Fungicidal efficacy of the mixture of Azolopyrimidine C+cyprodinil (1 day residual) against Erysiphe cichoracearum on cucumbers The tank mix was obtained from a SC formulation containing 100 g of Azolopyrimidine C per liter and a WG formulation containing and 750 g of cyprodinil per kg.

[5] = test system: Blumeria graminis; test: Greenhouse, Blumeria graminis on wheat, 2 days curative; conditions: Example 27
Method: as §1, §4, §5, §6, §8, §9, §10, §2, §3
Fungicidal efficacy of the mixture of (S)-Azolopyrimidine C in admixture with Azoxystrobin or Trifloxystrobin (2 days curative) against Blumeria graminis on wheat. The tank mixes were obtained from technical material of (S)-Azolopyrimidine C and Azoxystrobin or Trifloxystrobin.

[6] = test system: Blumeria graminis; test: Greenhouse, Blumeria graminis on wheat, 4 days residual; conditions: Example 30
Method: as §1, §4, §5, §6, §8, §9, §10, §2, §3
Fungicidal efficacy of the mixture of (S)-Azolopyrimidine C in admixture with Azoxystrobin or Trifloxystrobin (4 days residual) against Blumeria graminis on wheat. The tank mixes were obtained from technical material of (S)-Azolopyrimidine C and Azoxystrobin or Trifloxystrobin.

[7] = test system: Blumeria graminis; test: Greenhouse, Blumeria graminis on barley, 2 days curative; conditions: Example 29
Method: as §1, §4, §5, §6, §8, §9, §10, §2, §3
Fungicidal efficacy of the mixture of (S)-Azolopyrimidine C in admixture with Fenhexamid (2 days curative) against Blumeria graminis on barley. The tank mixes were obtained from technical material of (S)-Azolopyrimidine C and Fenhexamid.
Fungicidal efficacy of the mixture of (S)-Azolopyrimidine C in admixture with Azoxystrobin or Trifloxystrobin (2 days curative) against Blumeria graminis on barley. The tank mixes were obtained from technical material of (S)-Azolopyrimidine C and Azoxystrobin or Trifloxystrobin.

[8] = test system: Puccinia recondita; test: Greenhouse, Puccinia recondita on wheat, 2 days curative; conditions: Example 28
Method: as §1, §4, §5, §6, §7, §8, §9, §10, §2, §3
Fungicidal efficacy of the mixture of (S)-Azolopyrimidine C in admixture with Azoxystrobin or Trifloxystrobin (2 days curative) against Puccinia recondita on wheat. The tank mixes were obtained from technical material of (S)-Azolopyrimidine C and Azoxystrobin or Trifloxystrobin.

[9] = test system: Puccinia recondita; test: Greenhouse, Puccinia recondita on wheat, 4 days residual; conditions: Example 31
Method: as §1, §4, §5, §6, §7, §8, §9, §10, §2, §3
Fungicidal efficacy of the mixture of (S)-Azolopyrimidine C in admixture with Azoxystrobin or Trifloxystrobin (4 days residual) against Puccinia recondita on wheat. The tank mixes were obtained from technical material of (S)-Azolopyrimidine C and Azoxystrobin or Trifloxystrobin.

[10] = test system: Blumeria graminis; test: Greenhouse, Blumeria graminis on barley, 4 days residual; conditions: Example 32
Method: as §1, §4, §5, §6, §8, §9, §10, §2, §3
Fungicidal efficacy of the mixture of (S)-Azolopyrimidine C in admixture with Azoxystrobin (4 days residual) against Blumeria graminis on barley. The tank mixes were obtained from technical material of (S)-Azolopyrimidine C and Azoxystrobin.

Compound: CC(C1CC1)C(O)(Cn1cncn1)c1ccc(Cl)cc1 (stereo not drawn) [cyproconazole]
- Observed Efficacy ([1]; cyproconazole 15 g/ha alone): 86
- Observed Efficacy ([1]; cyproconazole 30 g/ha alone): 82

Compound: O=C1C2CC=CCC2C(=O)N1SC(Cl)(Cl)Cl (stereo not drawn) [captan]
- Observed Efficacy [2]: 18%

Compound: CC(Cc1ccc(C(C)(C)C)cc1)CN1C[C@@H](C)O[C@@H](C)C1 (stereo partly drawn) [fenpropimorph]
- Observed Efficacy ([3]; dose rate 0.5 ppm): 19%
- Observed Efficacy ([3]; dose rate 5 ppm): 15%

Compound: O=CNC(N1CCN(C(NC=O)C(Cl)(Cl)Cl)CC1)C(Cl)(Cl)Cl (stereo not drawn) [triforine]
- Observed Efficacy ([4]; dose rate 4 ppm): 0%
- Observed Efficacy ([4]; dose rate 16 ppm): 15%

Compound: mancozeb
- Observed Efficacy [2]: 27%

Compound: N#Cc1c(Cl)c(Cl)c(Cl)c(C#N)c1Cl [chlorothalonil]
- Observed Efficacy [2]: 13%

Compound: Trifloxystrobin
- Observed Efficacy ([5]; dose rate 1.6 ppm): 34%
- Observed Efficacy ([5]; dose rate 3.1 ppm): 55%
- Observed Efficacy ([5]; dose rate 6.3 ppm): 78%
- Observed Efficacy ([5]; dose rate 12.5 ppm): 89%
- Observed Efficacy ([5]; dose rate 25 ppm): 98%
- Observed Efficacy ([5]; dose rate 50 ppm): 99%
- Observed Efficacy ([6]; dose rate 3.1 ppm): 0%
- Observed Efficacy ([6]; dose rate 6.3 ppm): 0%
- Observed Efficacy ([6]; dose rate 12.5 ppm): 0%
- Observed Efficacy ([6]; dose rate 25 ppm): 0%
- Observed Efficacy ([6]; dose rate 50 ppm): 14%
- Observed Efficacy ([7]; dose rate 1.6 ppm): 22%
- Observed Efficacy ([7]; dose rate 3.1 ppm): 36%
- Observed Efficacy ([7]; dose rate 6.3 ppm): 59%
- Observed Efficacy ([7]; dose rate 12.5 ppm): 74%
- Observed Efficacy ([7]; dose rate 25 ppm): 89%
- Observed Efficacy ([7]; dose rate 50 ppm): 96%
- Observed Efficacy ([8]; dose rate 1.6 ppm): 0%
- Observed Efficacy ([8]; dose rate 3.1 ppm): 0%
- Observed Efficacy ([8]; dose rate 6.3 ppm): 0%
- Observed Efficacy ([8]; dose rate 12.5 ppm): 0%
- Observed Efficacy ([8]; dose rate 25 ppm): 0%
- Observed Efficacy ([9]; dose rate 3.1 ppm): 0%
- Observed Efficacy ([9]; dose rate 6.3 ppm): 0%
- Observed Efficacy ([9]; dose rate 12.5 ppm): 0%
- Observed Efficacy ([9]; dose rate 25 ppm): 0%
- Observed Efficacy ([9]; dose rate 50 ppm): 0%

Compound: N#Cc1c[nH]cc1-c1cccc(Cl)c1Cl [fenpiclonil]
- Observed Efficacy [2]: 76%

Compound: CO/C=C(/C(=O)OC)c1ccccc1Oc1cc(Oc2ccccc2C#N)ncn1 [Azoxystrobin]
- Observed Efficacy ([5]; dose rate 1.6 ppm): 0%
- Observed Efficacy ([5]; dose rate 3.1 ppm): 2%
- Observed Efficacy ([5]; dose rate 6.3 ppm): 21%
- Observed Efficacy ([5]; dose rate 12.5 ppm): 28%
- Observed Efficacy ([5]; dose rate 25 ppm): 48%
- Observed Efficacy ([5]; dose rate 50 ppm): 61%
- Observed Efficacy ([10]; dose rate 1.6 ppm): 0%
- Observed Efficacy ([10]; dose rate 3.1 ppm): 3%
- Observed Efficacy ([10]; dose rate 6.3 ppm): 3%
- Observed Efficacy ([10]; dose rate 12.5 ppm): 3%
- Observed Efficacy ([10]; dose rate 25 ppm): 2%
- Observed Efficacy ([10]; dose rate 50 ppm): 9%
- Observed Efficacy ([6]; dose rate 3.1 ppm): 0%
- Observed Efficacy ([6]; dose rate 6.3 ppm): 0%
- Observed Efficacy ([6]; dose rate 12.5 ppm): 7%
- Observed Efficacy ([6]; dose rate 25 ppm): 9%
- Observed Efficacy ([6]; dose rate 50 ppm): 9%
- Observed Efficacy ([1]; azoxystrobin 75 g/ha alone): 49
- Observed Efficacy ([7]; dose rate 1.6 ppm): 0%
- Observed Efficacy ([7]; dose rate 3.1 ppm): 10%
- Observed Efficacy ([7]; dose rate 6.3 ppm): 21%
- Observed Efficacy ([7]; dose rate 12.5 ppm): 49%
- Observed Efficacy ([7]; dose rate 25 ppm): 73%
- Observed Efficacy ([7]; dose rate 50 ppm): 87%
- Observed Efficacy ([8]; dose rate 1.6 ppm): 0%
- Observed Efficacy ([8]; dose rate 3.1 ppm): 25%
- Observed Efficacy ([8]; dose rate 6.3 ppm): 48%
- Observed Efficacy ([8]; dose rate 12.5 ppm): 85%
- Observed Efficacy ([8]; dose rate 25 ppm): 95%
- Observed Efficacy ([9]; dose rate 3.1 ppm): 0%
- Observed Efficacy ([9]; dose rate 6.3 ppm): 0%
- Observed Efficacy ([9]; dose rate 12.5 ppm): 0%
- Observed Efficacy ([9]; dose rate 25 ppm): 0%
- Observed Efficacy ([9]; dose rate 50 ppm): 8%

Compound: N#Cc1sc2c(=O)c3ccccc3c(=O)c=2sc1C#N [dithianon]
- Observed Efficacy [2]: 50%
